Experimental data as given in patent US11926625B2, “HPK1 antagonists and uses thereof” (Nimbus Saturn, Inc., priority 2021, dated 2024).
pIC50: −log10 of the molar value.

Molecular target: T1, HPK1 (Homo sapiens, UniProt Q92918)
T1 construct: purchased Invitrogen
Experiment: HPK1 biochemical enzyme assay (microfluidic mobility shift, Caliper)
Conditions: 1.5 nM HPK1 (Invitrogen), 1 mM ATP, 30 min preincubation, 60 min at RT, top concentration 3 μM; read-out: HPK1 1000UMATP caliper IC50
Protocol: Example 20. HPK1 Biochemical Enzyme Assay
HPK1 biochemical enzyme assay: HPK1 enzyme inhibition was measured using a microfluidic mobility shift assay. Reactions were performed in a 384-well plate, containing 1.5 nM HPK1 (Invitrogen), in assay buffer (Cama Biosciences; pH 7.4). Test compounds were titrated in ten point curves (top final assay concentration 3 μM), and preincubated with enzyme/substrate mix for 30 min prior to initiation of the reaction by addition of ATP (1 mM final concentration) and substrate (1 μM final concentration; Carna Biosciences) diluted in assay buffer supplemented by MgCl2 (final assay concentration of 5 mM). Following 60 min incubation at RT, the reaction was terminated by addition of 60 μl/well termination buffer (Carna Biosciences) and signal determination using a Caliper EZ Reader (Perkin Elmer, UK).

T1 sequence (Q92918 whole entry): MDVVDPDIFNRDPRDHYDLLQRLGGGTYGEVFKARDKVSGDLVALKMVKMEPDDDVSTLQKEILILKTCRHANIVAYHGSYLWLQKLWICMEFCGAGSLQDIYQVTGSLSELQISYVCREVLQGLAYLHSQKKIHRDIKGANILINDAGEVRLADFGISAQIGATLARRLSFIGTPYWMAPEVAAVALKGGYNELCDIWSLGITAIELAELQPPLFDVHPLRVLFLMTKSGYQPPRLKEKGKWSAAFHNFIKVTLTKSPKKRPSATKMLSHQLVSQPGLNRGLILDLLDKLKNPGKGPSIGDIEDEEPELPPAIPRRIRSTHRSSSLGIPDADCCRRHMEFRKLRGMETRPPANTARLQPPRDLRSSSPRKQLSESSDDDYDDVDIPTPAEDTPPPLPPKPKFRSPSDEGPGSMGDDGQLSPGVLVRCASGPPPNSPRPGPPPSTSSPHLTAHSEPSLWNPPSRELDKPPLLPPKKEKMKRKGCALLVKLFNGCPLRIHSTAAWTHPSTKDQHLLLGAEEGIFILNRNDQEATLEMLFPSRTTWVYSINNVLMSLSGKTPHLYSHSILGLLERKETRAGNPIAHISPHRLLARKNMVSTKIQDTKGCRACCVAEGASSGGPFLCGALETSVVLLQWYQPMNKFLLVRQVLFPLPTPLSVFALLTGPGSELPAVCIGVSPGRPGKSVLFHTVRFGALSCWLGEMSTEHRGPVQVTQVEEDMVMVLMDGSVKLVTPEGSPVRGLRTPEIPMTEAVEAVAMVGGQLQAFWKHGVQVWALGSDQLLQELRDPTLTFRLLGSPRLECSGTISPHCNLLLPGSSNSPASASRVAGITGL

Row | pIC50 | SMILES
1 | > 6.00 | O=C1NCc2c(-c3ccncc3)ncc(Nc3ccc(N4CCNCC4)cn3)c21 [Compound I-1, 7-[(5-piperazin-1-yl-2-pyridyl)amino]-4-(4-pyridyl)-2,3-dihydropyrrolo [3,4-c]pyridin-1-one]
2 | 5.30 to 6.00 | O=C1NCc2c(C3CCOCC3)ncc(Nc3ccc(N4CCNCC4)cn3)c21 [Compound I-2, 7-[(5-piperazin-1-yl-2-pyridyl)amino]-4-tetrahydropyran-4-yl-2,3-dihydropyrrolo [3,4-c]pyridin-1-one]
3 | 5.30 to 6.00 | O=C1NCc2c(-c3c(F)cccc3F)ncc(Nc3ccc(N4CCNCC4)cn3)c21 [Compound I-3, 4-(2,6-difluorophenyl)-7-[(5-piperazin-1-yl-2-pyridyl)amino]-2,3-dihydropyrrolo [3,4-c]pyridin-1-one]
4 | 5.30 to 6.00 | O=C1NCc2c(-c3ccccn3)ncc(Nc3ccc(N4CCNCC4)cn3)c21 [Compound I-4, 7-[(5-piperazin-1-yl-2-pyridyl)amino]-4-(2-pyridyl)-2,3-dihydropyrrolo [3,4-c]pyridin-1-one]
5 | 5.30 to 6.00 | CS(=O)(=O)c1ncc(Nc2ccc(N3CCNCC3)cn2)c2c1CNC2=O [Compound I-5, 4-methylsulfonyl-7-[(5-piperazin-1-yl-2-pyridyl)amino]-2,3-dihydropyrrolo [3,4-c]pyridin-1-one]
6 | 5.30 to 6.00 | COc1ccc(-c2ncc(Nc3ccc(N4CCNCC4)cn3)c3c2CNC3=O)cc1 [Compound I-6, 4-(4-methoxyphenyl)-7-[(5-piperazin-1-yl-2-pyridyl)amino]-2,3-dihydropyrrolo [3,4-c]pyridin-1-one]
7 | 5.30 to 6.00 | O=C1NCc2c(-c3cccnc3)ncc(Nc3ccc(N4CCNCC4)cn3)c21 [Compound I-7, 7-[(5-piperazin-1-yl-2-pyridyl)amino]-4-(3-pyridyl)-2,3-dihydropyrrolo [3,4-c]pyridin-1-one]
8 | 5.30 to 6.00 | NC(=O)c1ncc(Nc2ccc(N3CCNCC3)cn2)c2c1CNC2=O [Compound I-8, 1-oxo-7-[(5-piperazin-1-yl-2-pyridyl)amino]-2,3-dihydropyrrolo [3,4-c]pyridine-4-carboxamide]
9 | 5.30 to 6.00 | Cc1cc(-c2ncc(Nc3ccc(N4CCNCC4)cn3)c3c2CNC3=O)ccn1 [Compound I-9, 4-(2-methyl-4-pyridyl)-7-[(5-piperazin-1-yl-2-pyridyl)amino]-2,3-dihydropyrrolo [3,4-c]pyridin-1-one]
10 | 5.30 to 6.00 | O=C1NCc2c(-c3ncco3)ncc(Nc3ccc(N4CCNCC4)cn3)c21 [Compound I-10, 4-oxazol-2-yl-7-[(5-piperazin-1-yl-2-pyridyl)amino]-2,3-dihydropyrrolo [3,4-c]pyridin-1-one]
11 | 5.30 to 6.00 | O=C1NCc2c(-c3ccccc3)ncc(Nc3ccc(N4CCNCC4)cn3)c21 [Compound I-11, 4-phenyl-7-[(5-piperazin-1-yl-2-pyridyl)amino]-2,3-dihydropyrrolo [3,4-c]pyridin-1-one]
12 | 5.30 to 6.00 | O=C1NCc2c(C3CC3)ncc(Nc3ccc(N4CCNCC4)cn3)c21 [Compound I-12, 4-cyclopropyl-7-[(5-piperazin-1-yl-2-pyridyl)amino]-2,3-dihydropyrrolo [3,4-c]pyridin-1-one]
13 | 5.30 to 6.00 | O=C1NCc2c(-c3ccncc3)ncc(Nc3ccc(N4CCC(O)CC4)cn3)c21 [Compound I-13, 7-[[5-(4-hydroxy-1-piperidyl)-2-pyridyl]amino]-4-(4-pyridyl)-2,3-dihydropyrrolo [3,4-c]pyridin-1-one]
14 | 5.30 to 6.00 | O=C1NCc2c(-c3ccncc3)ncc(Nc3ccc(N4CCOCC4)cn3)c21 [Compound I-14, 7-[(5-morpholino-2-pyridyl)amino]-4-(4-pyridyl)-2,3-dihydropyrrolo [3,4-c]pyridin-1-one]
15 | 5.30 to 6.00 | CN1CCN(c2ccc(Nc3cnc(-c4ccncc4)c4c3C(=O)NC4)nc2)CC1 [Compound I-15, 7-[[5-(4-methylpiperazin-1-yl)-2-pyridyl]amino]-4-(4-pyridyl)-2,3-dihydropyrrolo [3,4-c]pyridin-1-one]
16 | 5.30 to 6.00 | O=C1NCc2c(N3CCOCC3)ncc(Nc3ccc(N4CCNCC4)cn3)c21 [Compound I-16, 4-morpholino-7-[(5-piperazin-1-yl-2-pyridyl)amino]-2,3-dihydropyrrolo [3,4-c]pyridin-1-one]
17 | 5.30 to 6.00 | Cn1cc(-c2ncc(Nc3ccc(N4CCNCC4)cn3)c3c2CNC3=O)cn1 [Compound I-17, 4-(1-methylpyrazol-4-yl)-7-[(5-piperazin-1-yl-2-pyridyl)amino]-2,3-dihydropyrrolo [3,4-c]pyridin-1-one]
18 | 5.30 to 6.00 | O=C1NCc2c(-c3cnco3)ncc(Nc3ccc(N4CCNCC4)cn3)c21 [Compound I-18, 4-oxazol-5-yl-7-[(5-piperazin-1-yl-2-pyridyl)amino]-2,3-dihydropyrrolo [3,4-c]pyridin-1-one]

Row | pIC50 | SMILES
19 | 5.30 to 6.00 | COc1cccc(-c2ncc(Nc3ccc(N4CCN(C)CC4)cn3)c3c2CNC3=O)c1OC [Compound I-19, 4-(2,3-dimethoxyphenyl)-7-[[5-(4-methylpiperazin-1-yl)-2-pyridyl]amino]-2,3-dihydropyrrolo [3,4-c]pyridin-1-one]
20 | 5.30 to 6.00 | COc1cccc(-c2ncc(Nc3ccc(N4CCNCC4)cn3)c3c2CNC3=O)c1OC [Compound I-20, 4-(2,3-dimethoxyphenyl)-7-[(5-piperazin-1-yl-2-pyridyl)amino]-2,3-dihydropyrrolo [3,4-c]pyridin-1-one]
21 | 5.30 to 6.00 | CCc1cnc(C)cc1-c1ncc(Nc2ccc(N3CCNCC3)cn2)c2c1CNC2=O [Compound I-21, 4-(5-ethyl-2-methyl-4-pyridyl)-7-[(5-piperazin-1-yl-2-pyridyl)amino]-2,3-dihydropyrrolo [3,4-c]pyridin-1-one]
22 | 5.30 to 6.00 | CN1CCN(c2ccc(Nc3cnc(-c4ccncc4F)c4c3C(=O)NC4)nc2)CC1 [Compound I-22, 4-(3-fluoro-4-pyridyl)-7-[[5-(4-methylpiperazin-1-yl)-2-pyridyl]amino]-2,3-dihydropyrrolo [3,4-c]pyridin-1-one]
23 | > 6.00 | CN1CCN(c2ccc(Nc3cnc(-c4cc[nH]c4)c4c3C(=O)NC4)nc2)CC1 [Compound I-23, 7-[[5-(4-methylpiperazin-1-yl)-2-pyridyl]amino]-4-(1H-pyrrol-3-yl)-2,3-dihydropyrrolo [3,4-c]pyridin-1-one]
24 | > 6.00 | CCN1CCN(Cc2ccc(NC(=O)c3ccc(-c4ncc(Nc5ccc(N6CCN(C)CC6)cn5)c5c4CNC5=O)cc3)cc2C(F)(F)F)CC1 [Compound I-24]
25 | > 6.00 | CN1CCN(c2ccc(Nc3ccc(-c4ccncc4)c4c3C(=O)NC4)nc2)CC1 [Compound I-25, 7-[[5-(4-methylpiperazin-1-yl)-2-pyridyl]amino]-4-(4-pyridyl) isoindolin-1-one]
26 | > 6.00 | O=C1NCc2c(-c3ccncc3)ccc(Nc3ccc(N4CCOCC4)cn3)c21 [Compound I-26, 7-[(5-morpholino-2-pyridyl)amino]-4-(4-pyridyl) isoindolin-1-one]
27 | > 6.00 | O=C1NCc2c(-c3ccncc3)ccc(Nc3ccc(N4CCNCC4)cn3)c21 [Compound I-27, 7-[(5-piperazin-1-yl-2-pyridyl)amino]-4-(4-pyridyl) isoindolin-1-one]
28 | > 6.00 | O=C1NCc2c(-c3ccncc3)ccc(Nc3ccc(N4CCC(O)CC4)cn3)c21 [Compound I-28, 7-[[5-(4-hydroxy-1-piperidyl)-2-pyridyl]amino]-4-(4-pyridyl) isoindolin-1-one]
29 | > 6.00 | CN1CCN(c2ccc(Nc3ccc(-c4ccccc4)c4c3C(=O)NC4)nc2)CC1 [Compound I-29, 7-[[5-(4-methylpiperazin-1-yl)-2-pyridyl]amino]-4-phenyl-isoindolin-1-one]
30 | > 6.00 | CN1CCN(c2ccc(Nc3ccc(-c4cccnc4)c4c3C(=O)NC4)nc2)CC1 [Compound I-30, 7-[[5-(4-methylpiperazin-1-yl)-2-pyridyl]amino]-4-(3-pyridyl) isoindolin-1-one]
31 | > 6.00 | CN1CCN(c2ccc(Nc3ccc(-c4ccccn4)c4c3C(=O)NC4)nc2)CC1 [Compound I-31, 7-[[5-(4-methylpiperazin-1-yl)-2-pyridyl]amino]-4-(2-pyridyl) isoindolin-1-one]
32 | > 6.00 | CN1CCN(c2ccc(Nc3ccc(-c4ccnc(N5CCOCC5)c4)c4c3C(=O)NC4)nc2)CC1 [Compound I-32, 7-[[5-(4-methylpiperazin-1-yl)-2-pyridyl]amino]-4-(2-morpholino-4-pyridyl) isoindolin-1-one]
33 | 5.30 to 6.00 | CN1CCN(c2ccc(Nc3ccc(-c4ccnc(N5CCC6(CCOCC6)CC5)c4)c4c3C(=O)NC4)nc2)CC1 [Compound I-33, 7-[[5-(4-methylpiperazin-1-yl)-2-pyridyl]amino]-4-[2-(3-oxa-9-azaspiro[5. 5]undecan-9-yl)-4-pyridyl] isoindolin-1-one]
34 | > 6.00 | CN1CCN(c2ccc(Nc3ccc(-c4ccnc(N5CCCCC5)c4)c4c3C(=O)NC4)nc2)CC1 [Compound I-34, 7-[[5-(4-methylpiperazin-1-yl)-2-pyridyl]amino]-4-[2-(1-piperidyl)-4-pyridyl] isoindolin-1-one]
35 | > 6.00 | CN1CCN(c2ccc(Nc3ccc(-c4ccnc(C(C)(C)C#N)c4)c4c3C(=O)NC4)nc2)CC1 [Compound I-35, 2-methyl-2-[4-[7-[[5-(4-methylpiperazin-1-yl)-2-pyridyl]amino]-1-oxo-isoindolin-4-yl]-2-pyridyl] propanenitrile]
36 | > 6.00 | O=C1NCc2c(-c3ccncc3)ccc(Nc3cc(C4CCOC4)n[nH]3)c21 (stereo not drawn) [Compound I-36, 4-(4-pyridyl)-7-[(3-tetrahydrofuran-3-yl-1H-pyrazol-5-yl)amino] isoindolin-1-one]
